According to article PMC3391913, “Cellular Immune Reactions of the Sunn Pest, Eurygaster integriceps, to the Entomopathogenic Fungus, Beauveria bassiana and Its Secondary Metabolites” (Journal of Insect Science, 2011):

Tested on: T1, phenoloxidase (PO)
T1 construct: gene prophenoloxidase; native, unpurified hemocyte lysate supernatant of adults; bands of 46 and 59 kDa on native PAGE
Test: spectrophotometric phenoloxidase assay at […] nm, fit in SigmaPlot
Assay type: biochemical, Eurygaster integriceps
Details: control insects without fungal metabolite; hemocyte lysate; 3-10 mM substrate; phosphate buffer pH 6.5; 30 °C

Km: 1630 µM
Compound: N[C@@H](Cc1ccc(O)c(O)c1)C(=O)O [L-dihydroxyphenylalanine]
